# Laboratory results as given in ChEMBL document CHEMBL4373715, “Discovery and Biological Evaluations of Halogenated 2,4-Diphenyl Indeno[1,2-b]pyridinol Derivatives as Potent Topoisomerase IIα-Targeted Chemotherapeutic Agents for Breast Cancer” (J Med Chem, 2019).
# Columns and labels:
# HCT-15 = assay: Antiproliferative activity against human HCT15 cells measured after 72 hrs by EZ-Cytox assay; format: functional, cell-based; settings: HCT-15, 72 h
# T47D = assay: Antiproliferative activity against human T47D cells measured after 72 hrs by EZ-Cytox assay; format: functional, cell-based
# DU-145 = assay: Antiproliferative activity against human DU145 cells measured after 72 hrs by EZ-Cytox assay; format: functional, cell-based; settings: DU-145, 72 h
# HeLa = assay: Antiproliferative activity against human HeLa cells measured after 72 hrs by EZ-Cytox assay; format: functional, cell-based
# [1] = target: T1, DNA topoisomerase 1 (Homo sapiens) (UniProt P11387); assay: Inhibition of recombinant human topoisomerase 1-mediated relaxation of supercoiled pBR322 DNA at 100 uM measured after 30 mins by ethidium bromide staining based agarose gel electrophoresis relative to control
# T1 sequence (whole entry): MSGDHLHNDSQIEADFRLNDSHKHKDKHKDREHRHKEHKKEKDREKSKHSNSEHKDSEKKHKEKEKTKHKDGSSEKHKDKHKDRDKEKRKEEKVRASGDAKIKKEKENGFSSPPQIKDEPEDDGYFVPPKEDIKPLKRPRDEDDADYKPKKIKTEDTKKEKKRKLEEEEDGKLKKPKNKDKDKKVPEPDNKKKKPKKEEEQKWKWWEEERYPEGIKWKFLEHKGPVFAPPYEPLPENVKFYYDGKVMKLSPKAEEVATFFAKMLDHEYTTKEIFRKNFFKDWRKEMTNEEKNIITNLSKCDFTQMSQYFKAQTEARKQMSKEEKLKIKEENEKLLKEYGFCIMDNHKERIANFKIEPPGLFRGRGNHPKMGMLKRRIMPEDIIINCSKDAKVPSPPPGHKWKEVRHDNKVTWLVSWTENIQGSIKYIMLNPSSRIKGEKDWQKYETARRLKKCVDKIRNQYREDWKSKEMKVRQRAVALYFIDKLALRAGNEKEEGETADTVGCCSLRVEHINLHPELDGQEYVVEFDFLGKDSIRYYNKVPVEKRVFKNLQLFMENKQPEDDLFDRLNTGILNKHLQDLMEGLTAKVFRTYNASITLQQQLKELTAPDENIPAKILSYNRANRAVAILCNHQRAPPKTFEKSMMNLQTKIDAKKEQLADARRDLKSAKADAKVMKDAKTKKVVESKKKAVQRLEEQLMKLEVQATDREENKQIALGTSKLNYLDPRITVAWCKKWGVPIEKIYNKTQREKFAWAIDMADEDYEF
# [2] = target: DNA topoisomerase 2-alpha (Homo sapiens) (UniProt P11388); assay: Inhibition of recombinant human topoisomerase 2alpha-mediated relaxation of supercoiled pBR322 DNA at 100 uM measured after 30 mins by ethidium bromide staining based agarose gel electrophoresis relative to control
# DNA topoisomerase 2-alpha (Homo sapiens), sequence (P11388 whole entry): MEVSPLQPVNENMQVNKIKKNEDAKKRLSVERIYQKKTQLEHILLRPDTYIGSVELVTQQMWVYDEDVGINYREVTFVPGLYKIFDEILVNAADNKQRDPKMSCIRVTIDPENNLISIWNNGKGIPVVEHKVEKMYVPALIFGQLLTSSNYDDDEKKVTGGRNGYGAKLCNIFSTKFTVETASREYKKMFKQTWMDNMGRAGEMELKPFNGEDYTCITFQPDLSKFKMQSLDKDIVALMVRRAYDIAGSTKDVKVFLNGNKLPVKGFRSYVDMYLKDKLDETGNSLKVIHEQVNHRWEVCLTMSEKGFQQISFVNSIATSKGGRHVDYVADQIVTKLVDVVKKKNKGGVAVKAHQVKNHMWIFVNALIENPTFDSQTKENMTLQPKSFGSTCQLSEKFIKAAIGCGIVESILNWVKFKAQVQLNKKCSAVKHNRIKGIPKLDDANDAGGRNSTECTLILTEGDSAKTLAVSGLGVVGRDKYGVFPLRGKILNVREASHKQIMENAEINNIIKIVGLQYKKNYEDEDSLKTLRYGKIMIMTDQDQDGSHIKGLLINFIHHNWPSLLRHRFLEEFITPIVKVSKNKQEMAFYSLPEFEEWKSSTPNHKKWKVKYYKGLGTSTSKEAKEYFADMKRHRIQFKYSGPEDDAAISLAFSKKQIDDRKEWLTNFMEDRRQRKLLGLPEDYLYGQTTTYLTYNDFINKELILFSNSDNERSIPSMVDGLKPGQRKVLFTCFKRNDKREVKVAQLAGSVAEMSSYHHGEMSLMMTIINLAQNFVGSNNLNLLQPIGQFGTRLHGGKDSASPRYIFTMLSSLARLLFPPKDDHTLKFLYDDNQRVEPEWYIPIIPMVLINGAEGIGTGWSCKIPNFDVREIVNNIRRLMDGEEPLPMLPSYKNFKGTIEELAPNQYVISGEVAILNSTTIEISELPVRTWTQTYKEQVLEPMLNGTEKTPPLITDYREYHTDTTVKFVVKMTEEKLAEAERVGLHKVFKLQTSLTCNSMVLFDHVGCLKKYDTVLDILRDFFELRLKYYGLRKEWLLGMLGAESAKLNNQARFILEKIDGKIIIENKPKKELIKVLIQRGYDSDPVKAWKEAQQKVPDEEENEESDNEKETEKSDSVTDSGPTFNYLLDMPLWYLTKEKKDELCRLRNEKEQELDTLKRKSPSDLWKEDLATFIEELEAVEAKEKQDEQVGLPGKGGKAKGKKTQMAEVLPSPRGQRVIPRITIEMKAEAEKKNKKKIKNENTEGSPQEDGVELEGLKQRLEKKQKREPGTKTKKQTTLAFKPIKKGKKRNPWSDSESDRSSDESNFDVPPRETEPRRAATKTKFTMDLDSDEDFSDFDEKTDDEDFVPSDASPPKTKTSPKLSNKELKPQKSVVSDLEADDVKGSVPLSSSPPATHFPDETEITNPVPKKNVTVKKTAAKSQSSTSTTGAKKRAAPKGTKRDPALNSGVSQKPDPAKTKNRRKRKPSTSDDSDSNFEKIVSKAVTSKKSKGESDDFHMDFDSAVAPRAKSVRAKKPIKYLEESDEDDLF
# [3] = target: DNA topoisomerase 2-alpha (Homo sapiens) (UniProt P11388); assay: Inhibition of recombinant human topoisomerase 2alpha-mediated relaxation of supercoiled pBR322 DNA at 20 uM measured after 30 mins by ethidium bromide staining based agarose gel electrophoresis relative to control
SMILES,IC50 (HCT-15) [µM],IC50 (T47D) [µM],IC50 (DU-145) [µM],IC50 (HeLa) [µM],inhibition [1] [%],inhibition [2] [%],inhibition [3] [%]
Oc1ccc2c(c1)Cc1c(-c3ccccc3)cc(-c3ccccc3)nc1-2,3.37,0.7,3.82,4.94,2.1,54.2,2.1
Oc1ccc2c(c1)Cc1c(-c3ccccc3O)cc(-c3cccc(Cl)c3)nc1-2,2.76,2.77,0.36,2.69,14.6,80.8,2.6
Oc1cccc(-c2cc(-c3ccccc3)c3c(n2)-c2ccc(O)cc2C3)c1,1.3,4.12,0.27,5.7,10.2,36,3.3
Oc1ccc(-c2cc(-c3ccccc3F)nc3c2Cc2cccc(O)c2-3)cc1,> 50,47.2,10.3,> 50,11.7,47.1,1.4
Oc1ccc(-c2cc(-c3cccc(Cl)c3)c3c(n2)-c2cccc(O)c2C3)cc1,2.39,1.92,1.64,1.66,6.1,75.3,2.2
Oc1ccc(-c2cc(-c3ccc(F)cc3)nc3c2Cc2c(O)cccc2-3)cc1,2.23,1.37,1.84,4.88,14.7,50.8,3.6
Oc1ccccc1-c1cc(-c2cccc(Cl)c2)c2c(n1)-c1cccc(O)c1C2,2.45,12,6.01,20.5,0,75.4,1.5
Oc1ccc(-c2cc(-c3cccc(C(F)(F)F)c3)nc3c2Cc2ccc(O)cc2-3)cc1,2.77,4.69,2.15,3.06,8.5,87.1,11.1
Oc1cccc(-c2cc(-c3ccc(C(F)(F)F)cc3)nc3c2Cc2cccc(O)c2-3)c1,11.3,2.14,2.22,6.66,0,100,0
Oc1ccc2c(c1)-c1nc(-c3ccc(Cl)cc3)cc(-c3ccccc3O)c1C2,1.78,0.72,0.49,4.61,8,86.6,25.7
Oc1ccc2c(c1)Cc1c(-c3ccc(Cl)cc3)cc(-c3ccccc3O)nc1-2,> 50,> 50,> 50,> 50,21.4,70.8,0
Oc1cccc(-c2cc(-c3ccccc3Cl)c3c(n2)-c2cccc(O)c2C3)c1,8.28,2.88,5.63,7.36,28.1,67.5,11.4
Oc1ccc2c(c1)-c1nc(-c3ccccc3Cl)cc(-c3ccccc3O)c1C2,4.94,2.84,0.77,6.71,0,76.8,5.8
Oc1cccc(-c2cc(-c3cccc(Cl)c3)c3c(n2)-c2ccc(O)cc2C3)c1,25.3,22.6,6.29,7.74,3.7,83,27
Oc1ccc(-c2cc(-c3cccc(Cl)c3)c3c(n2)-c2c(O)cccc2C3)cc1,> 50,19,6.04,43.8,3.2,71.6,13.3
Oc1ccc(-c2cc(-c3ccccc3Cl)c3c(n2)-c2ccc(O)cc2C3)cc1,4.27,2.7,3.25,4.92,11.9,80,7
Oc1cccc(-c2cc(-c3cccc(F)c3)nc3c2Cc2cc(O)ccc2-3)c1,2.71,0.79,1.41,3.85,17.5,66.2,0

SMILES,IC50 (HCT-15) [µM],IC50 (T47D) [µM],IC50 (DU-145) [µM],IC50 (HeLa) [µM],inhibition [1] [%],inhibition [2] [%],inhibition [3] [%]
Oc1cccc(-c2cc(-c3cccc(C(F)(F)F)c3)nc3c2Cc2c(O)cccc2-3)c1,2.69,1.91,1.62,4.17,5.6,67.3,40.5
Oc1ccc2c(c1)Cc1c(-c3ccccc3O)cc(-c3ccccc3C(F)(F)F)nc1-2,1.61,1.14,2.02,2.92,1.6,90.2,3.7
Oc1ccccc1-c1cc(-c2ccc(Cl)cc2)c2c(n1)-c1c(O)cccc1C2,18.8,13,1.95,> 50,0,70.5,6.4
Oc1ccc(-c2cc(-c3ccccc3C(F)(F)F)nc3c2Cc2cc(O)ccc2-3)cc1,2.43,1.05,2.31,2.07,13.9,85.9,0
Oc1ccc2c(c1)Cc1c(-c3ccccc3O)cc(-c3ccc(Cl)cc3)nc1-2,3.97,0.62,0.65,3.84,26.8,97.5,4.4
Oc1ccc(-c2cc(-c3ccc(Cl)cc3)nc3c2Cc2cc(O)ccc2-3)cc1,0.77,1.84,1.91,1.02,0,100,50.2
Oc1cccc(-c2cc(-c3cccc(Cl)c3)c3c(n2)-c2c(O)cccc2C3)c1,> 50,> 50,17.1,> 50,8.9,71.9,0.3
Oc1ccccc1-c1cc(-c2cccc(Cl)c2)nc2c1Cc1c(O)cccc1-2,7.47,0.64,0.56,> 50,0,83.5,6.9
Oc1ccccc1-c1cc(-c2ccccc2Cl)c2c(n1)-c1c(O)cccc1C2,2.03,2.93,5.67,> 50,23.9,56.5,1.6
Oc1cccc(-c2cc(-c3cccc(F)c3)nc3c2Cc2c(O)cccc2-3)c1,4.9,0.89,2.37,7.04,9.8,43.2,5.6
Oc1ccc2c(c1)-c1nc(-c3ccccc3O)cc(-c3ccc(Cl)cc3)c1C2,> 50,> 50,> 50,> 50,2.9,21.4,0
Oc1ccc(-c2cc(-c3ccccc3Cl)nc3c2Cc2ccc(O)cc2-3)cc1,3.04,0.95,0.54,3.22,0,80.9,19.2
Oc1cccc(-c2cc(-c3ccccc3)nc3c2Cc2cc(O)ccc2-3)c1,1.48,2.66,0.6,5.64,20,96.8,0
Oc1cccc(-c2cc(-c3ccc(F)cc3)nc3c2Cc2ccc(O)cc2-3)c1,1.46,0.68,1.06,3.82,11.7,48.3,5.4
Oc1cccc(-c2cc(-c3ccc(Cl)cc3)c3c(n2)-c2c(O)cccc2C3)c1,14.7,2.22,4.07,9.01,9.3,95.7,8.5
Oc1cccc(-c2cc(-c3cccc(Cl)c3)nc3c2Cc2ccc(O)cc2-3)c1,0.84,1.37,3.28,5.44,1.5,90.5,14.3
